Assay results taken from PMC3100252, “A theoretical entropy score as a single value to express inhibitor selectivity” (BMC Bioinformatics, 2011).
Like-named read-outs stand apart in the source and are kept apart here.

How the values were obtained:
[1] = system: 290 kinases (excluding mutants); assay type: binding; conditions: for Ka-Gini: Gini score calculated directly on Kas of the Ambit dataset (Kds of ref 5); for entropies (selectivity entropy, Ssel): calculated from Kds of the Ambit dataset (ref 5)
From the text: Having defined the entropy, we next investigated its performance relative to the most widely-used methods, on a public profiling dataset of 38 inhibitors on 290 non-mutant kinases (Table 1 and Additional file 1). […] To this we added a Ka-Gini value and the selectivity entropy. The Ka-Gini is a Gini score directly calculated on Kas, without reverting to %-inhibition values (see below). […] In addition, to get an overview of the profiling raw data, we appended an activity-based heat map (Uitdehaag_S1).
(§1) It is worth to note that the partition coefficient is the same as ϕl in our entropy equation (eq. 2).
The Gini score was calculated from data on %-inhibition. […] In addition, to work more directly with Kds, we also introduce a Ka-Gini score, in which association constants are used for rank-ordering the kinase profile. […] All calculations were done in Microsoft Excel. […]

222 human kinases = experiment: Millipore kinase profiling (radioactive filter binding activity assay at [ATP] = KM,ATP) and selectivity metrics calculated from it; assay type: biochemical; parameters: selectivity score: scale not given here; conditions: for Ka-Gini score / Pmax / S10x / selectivity score: calculated from Millipore activity data; for selectivity entropy: calculated from Millipore activity data (pEC50), [ATP] = KM,ATP
From the text: As a next step we selected 16 compounds from the public profile (Ambit), and measured activity data on these using a different profiling service (Millipore, data available as Additional file 2). […] Also for these new data, we calculated the selectivity metrics (Uitdehaag_S2). In the ideal case, the selectivity values are similar irrespective of profiling technology (in the same way that a Kd value is ideally independent of laboratory and assay format). The data of both methods are plotted in Figure 2.
as §1
The Gini score was calculated from data on %-inhibition. […] In addition, to work more directly with Kds, we also introduce a Ka-Gini score, in which association constants are used for rank-ordering the kinase profile. […] All calculations were done in Microsoft Excel.
For comparing profiles across methods (Figure 2), we selected 16 kinase inhibitors of the Ambit profile (Table 2) and submitted these to the kinase profiling service from Millipore (http://www.millipore.com/drugdiscovery/svp3/kpservices, data available as Additional file 2). Both profiling methods are described earlier and differ (among other variations) in the following way: Ambit uses a competitive binding setup in absence of ATP on kinases from T7 or HEK293 expression systems. Millipore uses a radioactive filter binding activity assay, with kinases purified from Escherichia coli or baculovirus expression systems.

[2] = system: 290 kinases (excluding mutants); conditions: cited from earlier work; for Gini: 38 inhibitors on 290 non-mutant kinases; for S10x: fraction of kinases hit at 10 times the Kd of the target
PDGFRβ = conditions: Ambit profiling raw data; cited from earlier work
[3] = Ambit dataset, values taken from earlier work
[4] = Ambit dataset, fraction of kinases hit below 3 μM, values taken from earlier work
[5] = rank among 38 inhibitors, Ambit dataset

SMILES | Ka-Gini [1] | entropies (selectivity entropy, Ssel) ([1]; 290 kinases) | Ka-Gini score (222 human kinases) | Pmax (222 human kinases) | S10x (222 human kinases) | selectivity score (222 human kinases) | selectivity entropy (222 human kinases) | Gini [2, 3] | S10x [2, 3] | S3uM (selectivity score S(3 μM)) [2, 4] | Pmax (partition index) [2, 3] | Kd (PDGFRβ) [nM] | number of kinases inhibited below 3 μM ([1]; Ambit profile, 290 kinases) [kinases] | selectivity rank by Ka-Gini [1, 5] | selectivity rank by Pmax [1, 5] | selectivity rank by selectivity entropy [1, 5] | potencies on the 4 kinases hit with roughly equal potencies ([2]; Ambit profile, 4 kinases not named) [nM] | S3uM (selectivity score S(3 μM)) [2]
CCN(CCO)CCCOc1ccc2c(Nc3cc(CC(=O)Nc4cccc(F)c4)[nH]n3)ncnc2c1 [AZD1152HQPA] | 0.98 | 1.91 | 0.993 | 0.603 | 0.007 | 0.041 | 1.366 | 0.78 | 0.02 | 0.10 | 0.34 |  |  |  |  |  |  | 
Cc1[nH]c(/C=C2\C(=O)Nc3ccc(F)cc32)c(C)c1C(=O)NC[C@H](O)CN1CCOCC1 [SU-14813] | 0.97 | 2.04 |  |  |  |  |  | 0.70 | 0.02 | 0.51 | 0.18 | 0.29 |  |  |  |  |  | 
Oc1cccc(-c2nc(N3CCOCC3)c3oc4ncccc4c3n2)c1 [PI-103] | 0.99 | 0.05 | 0.995 | 0.561 | 0.005 | 0.014 | 0.876 | 0.41 | 0.00 |  | 0.97 |  |  |  |  |  |  | 
Cc1ccc(F)c(NC(=O)Nc2ccc(-c3cccc4[nH]nc(N)c34)cc2)c1 [ABT-869, linifanib] | 0.98 | 1.93 | 0.968 | 0.132 | 0.025 | 0.235 | 2.834 | 0.82 | 0.01 | 0.16 | 0.32 |  |  |  |  |  |  | 
Cc1ccc(-n2nc(C(C)(C)C)cc2NC(=O)Nc2ccc(OCCN3CCOCC3)c3ccccc23)cc1 [BIRB-796, doramapimod] | 0.99 |  | 0.984 | 0.440 | 0.011 |  |  | 0.81 |  |  |  |  |  |  |  |  |  | 
Cc1nc(Nc2ncc(C(=O)Nc3c(C)cccc3Cl)s2)cc(N2CCN(CCO)CC2)n1 [Dasatinib, dasatinib] | 0.93 |  | 0.943 | 0.041 | 0.070 |  |  | 0.79 |  |  |  |  |  |  |  |  |  | 
O=C(O)c1ccc(Nc2ncc3c(n2)-c2ccc(Cl)cc2C(c2c(F)cccc2F)=NC3)cc1 [MLN-8054] | 0.97 | 1.95 | 0.980 | 0.617 | 0.002 | 0.154 | 1.903 | 0.75 | 0.01 | 0.13 | 0.36 |  |  |  |  |  |  | 
Cn1c(Nc2ccc(C(F)(F)F)cc2)nc2cc(Oc3ccnc(-c4ncc(C(F)(F)F)[nH]4)c3)ccc21 [CHIR265] | 0.96 |  | 0.982 | 0.304 | 0.014 |  |  | 0.74 |  |  |  |  |  |  |  |  |  | 
COc1cc2c(N3CCN(C(=O)Nc4ccc(OC(C)C)cc4)CC3)ncnc2cc1OCCCN1CCCCC1 [MLN-518, tandutinib] | 0.98 | 1.58 | 0.993 | 0.621 | 0.005 | 0.032 | 1.300 | 0.74 | 0.01 |  | 0.26 |  | 10 | 14 | 26 | 15 | 2 to 10 | 0.06
